Experimental data reported in the supplement of paper PMC8149375.

How the values were obtained:
Conditions in all cases: treatment: drug alone; 5 days
769-P [1] = experiment: GI50, drug alone; higher = less potent
Experimental: (§1)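 Primary HTS: 8 RCC cell lines treated with 8 doses (up to 10 uM) of each library drug alone for 5 days; viability read by CellTiter-Glo and normalised to DMSO. GI50 was fitted with XLfit (4-parameter), AUC is the area under the dose-response curve, and minimum viability is the lowest fraction of DMSO viability across doses.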

786-O [2] = experiment: GI50, drug alone; higher = less potent
Experimental: as §1

A498 [3] = experiment: GI50, drug alone; higher = less potent
Experimental: as §1

ACHN [4] = experiment: GI50, drug alone; higher = less potent
Experimental: as §1

CAKI-1 [5] = experiment: GI50, drug alone; higher = less potent
Experimental: as §1

SN12C [6] = experiment: GI50, drug alone; higher = less potent
Experimental: as §1

TK-10 [7] = experiment: GI50, drug alone; higher = less potent
Experimental: as §1

UO-31 [8] = experiment: GI50, drug alone; higher = less potent
Experimental: as §1

769-P [9] = experiment: minimum viability across doses, drug alone, relative to DMSO (fraction); higher = less growth inhibition
Experimental: as §1

786-O [10] = experiment: as above
Experimental: as §1

A498 [11] = experiment: as above
Experimental: as §1

ACHN [12] = experiment: as above
Experimental: as §1

CAKI-1 [13] = experiment: as above
Experimental: as §1

SN12C [14] = experiment: as above
Experimental: as §1

TK-10 [15] = experiment: as above
Experimental: as §1

UO-31 [16] = experiment: as above
Experimental: as §1

769-P [17] = experiment: AUC of dose-response viability curve, drug alone (arbitrary (AUC of normalised viability)); higher = less growth inhibition
Experimental: as §1

786-O [18] = experiment: as above
Experimental: as §1

A498 [19] = experiment: as above
Experimental: as §1

ACHN [20] = experiment: as above
Experimental: as §1

CAKI-1 [21] = experiment: as above
Experimental: as §1

SN12C [22] = experiment: as above
Experimental: as §1

TK-10 [23] = experiment: as above
Experimental: as §1

UO-31 [24] = experiment: as above
Experimental: as §1

CO[C@H]1C[C@@H]2CC[C@@H](C)[C@@](O)(O2)C(=O)C(=O)N2CCCC[C@H]2C(=O)O[C@H]([C@H](C)C[C@@H]2CC[C@@H](O)[C@H](OC)C2)CC(=O)[C@H](C)/C=C(\C)[C@@H](O)[C@@H](OC)C(=O)[C@H](C)C[C@H](C)/C=C/C=C/C=C/1C [Rapamycin (Sirolimus)]
GI50, drug alone (769-P [1]): > 10 µM | GI50, drug alone (786-O [2]): < 0.003 µM | GI50, drug alone (A498 [3]): > 10 µM | GI50, drug alone (ACHN [4]): 0.171 µM | GI50, drug alone (CAKI-1 [5]): 0.358 µM | GI50, drug alone (SN12C [6]): 1.76 µM | GI50, drug alone (TK-10 [7]): > 10 µM | GI50, drug alone (UO-31 [8]): < 0.003 µM | minimum viability across doses (769-P [9]): 0.504 | minimum viability across doses (786-O [10]): 0.211 | minimum viability across doses (A498 [11]): 0.547 | minimum viability across doses (ACHN [12]): 0.38 | minimum viability across doses (CAKI-1 [13]): 0.377 | minimum viability across doses (SN12C [14]): 0.557 | minimum viability across doses (TK-10 [15]): 0.491 | minimum viability across doses (UO-31 [16]): 0.0503 | AUC of dose-response viability curve (769-P [17]): 2.08 | AUC of dose-response viability curve (786-O [18]): 0.986 | AUC of dose-response viability curve (A498 [19]): 2.44 | AUC of dose-response viability curve (ACHN [20]): 1.77 | AUC of dose-response viability curve (CAKI-1 [21]): 1.91 | AUC of dose-response viability curve (SN12C [22]): 2.11 | AUC of dose-response viability curve (TK-10 [23]): 2.04 | AUC of dose-response viability curve (UO-31 [24]): 0.524

Cc1c(NC(=O)OC[C@@H]2COCCN2)cn2ncnc(Nc3ccc4c(cnn4Cc4cccc(F)c4)c3)c12.Cl
GI50, drug alone (769-P [1]): 5.19 µM | GI50, drug alone (786-O [2]): > 10 µM | GI50, drug alone (A498 [3]): > 10 µM | GI50, drug alone (ACHN [4]): 4.1 µM | GI50, drug alone (CAKI-1 [5]): > 10 µM | GI50, drug alone (SN12C [6]): > 10 µM | GI50, drug alone (TK-10 [7]): 1.94 µM | GI50, drug alone (UO-31 [8]): > 10 µM | minimum viability across doses (769-P [9]): 0.368 | minimum viability across doses (786-O [10]): 0.592 | minimum viability across doses (A498 [11]): 0.861 | minimum viability across doses (ACHN [12]): 0.419 | minimum viability across doses (CAKI-1 [13]): 0.573 | minimum viability across doses (SN12C [14]): 0.677 | minimum viability across doses (TK-10 [15]): 0.234 | minimum viability across doses (UO-31 [16]): 0.929 | AUC of dose-response viability curve (769-P [17]): 2.92 | AUC of dose-response viability curve (786-O [18]): 3.22 | AUC of dose-response viability curve (A498 [19]): 3.52 | AUC of dose-response viability curve (ACHN [20]): 2.75 | AUC of dose-response viability curve (CAKI-1 [21]): 3.17 | AUC of dose-response viability curve (SN12C [22]): 3.22 | AUC of dose-response viability curve (TK-10 [23]): 2.53 | AUC of dose-response viability curve (UO-31 [24]): 4.06

COc1cc(OC)c(/C=C/S(=O)(=O)Cc2ccc(OC)c(NCC(=O)[O][Na])c2)c(OC)c1
GI50, drug alone (769-P [1]): 0.0821 µM | GI50, drug alone (786-O [2]): 0.0233 µM | GI50, drug alone (A498 [3]): 0.0912 µM | GI50, drug alone (ACHN [4]): 0.123 µM | GI50, drug alone (CAKI-1 [5]): 0.0743 µM | GI50, drug alone (SN12C [6]): 0.216 µM | GI50, drug alone (TK-10 [7]): 0.327 µM | GI50, drug alone (UO-31 [8]): 0.0855 µM | minimum viability across doses (769-P [9]): 0.0669 | minimum viability across doses (786-O [10]): 0.00295 | minimum viability across doses (A498 [11]): 0.154 | minimum viability across doses (ACHN [12]): 0.102 | minimum viability across doses (CAKI-1 [13]): 0.119 | minimum viability across doses (SN12C [14]): 0.124 | minimum viability across doses (TK-10 [15]): 0.273 | minimum viability across doses (UO-31 [16]): 0.0069 | AUC of dose-response viability curve (769-P [17]): 1.49 | AUC of dose-response viability curve (786-O [18]): 0.88 | AUC of dose-response viability curve (A498 [19]): 1.91 | AUC of dose-response viability curve (ACHN [20]): 1.7 | AUC of dose-response viability curve (CAKI-1 [21]): 1.63 | AUC of dose-response viability curve (SN12C [22]): 2.01 | AUC of dose-response viability curve (TK-10 [23]): 2.13 | AUC of dose-response viability curve (UO-31 [24]): 1.46
